Assays:
[1] = target: T1, human CRF receptor (Homo sapiens, UniProt P34998); assay: Measurement of CRF Binding Inhibitory Rate (receptor binding experiment with 125I-CRF); settings: human CRF receptor expressing CHO cellular membrane fraction; 50 pM ovine 125I-CRF; 0.05 nM to 10 μM of compound; room temperature 1.5 hr; read-out: IC50 values (CRF binding inhibition)
T1 construct: expressed in transfected cells; host or cells: CHO cells (membrane fraction)
T1 sequence (P34998 24-415): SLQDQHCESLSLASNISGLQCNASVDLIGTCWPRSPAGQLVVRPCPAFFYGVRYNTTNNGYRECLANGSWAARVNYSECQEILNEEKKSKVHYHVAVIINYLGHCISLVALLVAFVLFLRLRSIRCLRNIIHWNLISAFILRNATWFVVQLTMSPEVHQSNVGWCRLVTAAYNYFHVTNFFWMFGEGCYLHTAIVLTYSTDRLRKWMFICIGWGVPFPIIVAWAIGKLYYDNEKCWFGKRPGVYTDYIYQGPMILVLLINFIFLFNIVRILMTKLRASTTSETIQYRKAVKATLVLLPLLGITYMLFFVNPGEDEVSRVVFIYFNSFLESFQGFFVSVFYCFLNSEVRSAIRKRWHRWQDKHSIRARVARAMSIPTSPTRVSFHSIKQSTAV
Method: Measurement of CRF Binding Inhibitory Rate
A receptor binding experiment was carried out using a human CRF receptor expressing CHO cellular membrane fraction and ovine CRF, [^125I]-tyr^0(^125I-CRF). 1000 nM of a test compound was incubated with 1 μg of human CRF receptor expressing CHO cellular membrane fraction and 50 pM of ^125I-CRF in a binding assay buffer (50 mM Tris-HCl, 5 mM EDTA, 10 mM MgCl2, 0.05% CHAPS, 0.1% BSA, 0.5 mM PMSF, 0.1 μg/mL pepstatin, 20 μg/mL leupeptin, pH 7.5). In addition, for measuring nonspecific binding (NSB), 0.1 μM unlabelled human Urocortin was incubated with 5 μg of human CRF receptor expressing CHO cellular membrane fraction and 50 pM of ^125I-CRF in a binding assay buffer. After a binding reaction was carried out at room temperature for 1.5 hr, the membrane was entrapped on a glass filter (UniFilter plate GF-C/Perkin Elmer) by suction filtration using a cell harvester (Perkin Elmer), and washed with ice-cooled 50 mM Tris-HCl (pH 7.5). After drying the glass filter, a liquid scintillation cocktail (Microscinti 0, Perkin Elmer) was added, and the radioactivity of ^125I-CRF remaining on a glass filter was measured using Topcount (Perkin Elmer).
(TB-SB)/(TB-NSB)×100 (SB: radioactivity when a compound is added, TB: maximum binding radioactivity, NSB: nonspecific binding radioactivity) were calculated to obtain binding inhibitory rates under the range of the presence from 0.05 nM to 10 μM of each compounds. The IC50 values were calculated by using GraphPad Prism software.

Row | Compound | IC50 [1] [nM] | melting point [°C]
1 | CCC(CC)c1ccc(Cl)c2nc(Oc3c(Cl)cc(Cl)cc3[Si](C)(C)C)n(C)c12 [Example 60, 4-Chloro-2-[2,4-dichloro-6-(trimethylsilyl)phenoxy]-7-(1-ethylpropyl)-1-methyl-1H-benzimidazole] | < 1000 | –
2 | CCC(CC)c1ccc(OC)c2nc(Oc3c(C)cc(OC(F)(F)F)cc3CN(C)C)n(C)c12.Cl [Example 15, 1-[2-{[7-(1-Ethylpropyl)-4-methoxy-1-methyl-1H-benzimidazol-2-yl]oxy}-3-methyl-5-(trifluoromethoxy)phenyl]-N,N-dimethylmethanamine Hydrochloride] | < 1000 | 92 to 94
3 | CCC(CO)c1ccc(Cl)c2nc(Oc3c(C)cc(Cl)cc3Cl)n(C)c12 (centres unmarked) [Example 94, 2-[4-Chloro-2-(2,4-dichloro-6-methylphenoxy)-1-methyl-1H-benzimidazol-7-yl]butan-1-ol] | < 1000 | 208 to 209
4 | CCC(CC)c1ccc(Cl)c2nc(Oc3c(Cl)cc(Cl)cc3CN3CCCC3)n(C)c12 [Example 78, 4-Chloro-2-[2,4-dichloro-6-(pyrrolidin-1-ylmethyl)phenoxy]-7-(1-ethylpropyl)-1-methyl-1H-benzimidazole] | < 1000 | 122 to 123
5 | CCC(CC)c1ccc(Cl)c2nc(Oc3c(C)cc(S(N)(=O)=O)cc3Cl)n(C)c12 [Example 40, 3-Chloro-4-{[4-chloro-7-(1-ethylpropyl)-1-methyl-1H-benzimidazol-2-yl]oxy}-5-methylbenzenesulfonamide] | < 1000 | 293 to 294
6 | CCC(CC)c1ccc(OC)c2nc(Oc3c(Cl)cc(Cl)cc3N(C)C)n(C)c12 [Example 7, 3,5-Dichloro-2-{[7-(1-ethylpropyl)-4-methoxy-1-methyl-1H-benzimidazol-2-yl]oxy}-N,N-dimethylaniline] | < 1000 | 173 to 175
7 | CCC(CCO)c1ccc(Cl)c2nc(Oc3c(C)cc(Cl)cc3Cl)n(C)c12 (centres unmarked) [Example 97, 3-[4-Chloro-2-(2,4-dichloro-6-methylphenoxy)-1-methyl-1H-benzimidazol-7-yl]pentan-1-ol] | < 1000 | 165 to 167
8 | CCC(CC)c1ccc(Cl)c2nc(Nc3c(C)cc(Cl)cc3OC)[nH]c12 [Example 67, 4-Chloro-N-(4-chloro-2-methoxy-6-methylphenyl)-7-(1-ethylpropyl)-1H-benzimidazol-2-amine] | < 1000 | –
9 | CCC(CC)c1ccc(OC)c2nc(Oc3ccc(Cl)cc3N(C)C)n(C)c12 [Example 4, 5-Chloro-2-{[7-(1-ethylpropyl)-4-methoxy-1-methyl-1H-benzimidazol-2-yl]oxy}-N,N-dimethylaniline] | < 1000 | 122 to 123
10 | CCC(CC)c1ccc(OC)c2nc(Oc3ccc(OC(F)(F)F)cc3N(C)C)n(C)c12 [Example 30, 2-{[7-(1-Ethylpropyl)-4-methoxy-1-methyl-1H-benzimidazol-2-yl]oxy}-N,N-dimethyl-5-(trifluoromethoxy)aniline] | < 1000 | 93 to 95
11 | CCC(CC)c1ccc(Cl)c2nc(Oc3c(Br)cc(Br)nc3C)n(C)c12 [Example 74, 4-Chloro-2-[(4,6-dibromo-2-methylpyridin-3-yl)oxy]-7-(1-ethylpropyl)-1-methyl-1H-benzimidazole] | < 1000 | 202 to 203
12 | CCC(CC)c1ccc(OC)c2nc(Oc3c(Cl)cc(Cl)cc3CN3CCCC3C)n(C)c12.Cl (centres unmarked) [Example 80, 2-{2,4-Dichloro-6-[(2-methylpyrrolidin-1-yl)methyl]phenoxy}-7-(1-ethylpropyl)-4-methoxy-1-methyl-1H-benzimidazole] | < 1000 | 171 to 173
13 | CCC(CC)c1ccc(OC)c2nc(Oc3ccc(OC(F)(F)F)cc3CN(C)C)n(C)c12 [Example 13, 1-[2-{[7-(1-Ethylpropyl)-4-methoxy-1-methyl-1H-benzimidazol-2-yl]oxy}-5-(trifluoromethoxy)phenyl]-N,N-dimethylmethanamine] | < 1000 | 95 to 97
14 | CCC(CC)c1ccc(OC)c2nc(Oc3c(Cl)cc(Cl)cc3CN(C)C)n(C)c12.Cl [Example 77, 1-(3,5-Dichloro-2-{[7-(1-ethylpropyl)-4-methoxy-1-methyl-1H-benzimidazol-2-yl]oxy}phenyl)-N,N-dimethylmethanamine] | < 1000 | 169 to 170
15 | CCC(CC)c1ccc(Cl)c2nc(Oc3c(Cl)cc(Cl)cc3C#N)n(C)c12 [Example 31, 3,5-Dichloro-2-{[4-chloro-7-(1-ethylpropyl)-1-methyl-1H-benzimidazol-2-yl]oxy}benzonitrile] | < 1000 | 155 to 156
16 | CCC(CC)c1ccc(OC)c2nc(Oc3ncc(Br)cc3C)n(C)c12 [Example 8, 2-[(5-Bromo-3-methylpyridin-2-yl)oxy]-7-(1-ethylpropyl)-4-methoxy-1-methyl-1H-benzimidazole] | < 1000 | –
17 | CCC(CC)c1ccc(Cl)c2nc(Oc3c(C)cc(C(C)=O)cc3Cl)n(C)c12 [Example 35, 1-(3-Chloro-4-{[4-chloro-7-(1-ethylpropyl)-1-methyl-1H-benzimidazol-2-yl]oxy}-5-methylphenyl)ethanone] | < 1000 | 160 to 161
18 | CCC(c1cccc2nc(Nc3c(C)cc(Cl)cc3OC)n(C)c12)N(C)C (centres unmarked) [Example 62, N-(4-Chloro-2-methoxy-6-methylphenyl)-7-[1-(dimethylamino)propyl]-1-methyl-1H-benzimidazol-2-amine] | < 1000 | –
19 | CCC(CC)c1ccc(Cl)c2nc(Oc3c(Br)cc(C(F)(F)F)nc3C)n(C)c12 [Example 75, 2-{[4-Bromo-2-methyl-6-(trifluoromethyl)pyridin-3-yl]oxy}-4-chloro-7-(1-ethylpropyl)-1-methyl-1H-benzimidazole] | < 1000 | –
20 | CCC(CC)c1ccc(OC)c2nc(Oc3ccc(C)nc3N(C)C)n(C)c12 [Example 5, 3-{[7-(1-Ethylpropyl)-4-methoxy-1-methyl-1H-benzimidazol-2-yl]oxy}-N,N,6-trimethylpyridin-2-amine] | < 1000 | 143 to 144
21 | CCC(CC)c1ccc(Br)c2nc(Oc3c(C)cc(Cl)cc3Cl)n(C)c12 [Example 70, 4-Bromo-2-(2,4-dichloro-6-methylphenoxy)-7-(1-ethylpropyl)-1-methyl-1H-benzimidazole] | < 1000 | 146 to 147
22 | CCC(CC)c1ccc(Cl)c2nc(Nc3c(C)cc(SC)cc3OC)n(C)c12 [Example 45, 4-Chloro-7-(1-ethylpropyl)-N-[2-methoxy-6-methyl-4-(methylthio)phenyl]-1-methyl-1H-benzimidazol-2-amine] | < 1000 | 223 to 225
23 | CCC(CC)c1ccc(OC)c2nc(Oc3nn(C)c(C)c3C)n(C)c12 [Example 14, 7-(1-Ethylpropyl)-4-methoxy-1-methyl-2-[(1,4,5-trimethyl-1H-pyrazol-3-yl)oxy]-1H-benzimidazole] | < 1000 | –
24 | CCC(CC)c1ccc(OC)c2nc(Oc3ccc(OC(F)(F)F)cc3Cl)n(C)c12 [Example 1, 2-[2-Chloro-4-(trifluoromethoxy)phenoxy]-7-(1-ethylpropyl)-4-methoxy-1-methyl-1H-benzimidazole] | < 1000 | –
25 | CCC(CC)c1ccc(Cl)c2nc(Oc3c(C)cc(OC(F)(F)F)cc3CN(C)C)n(C)c12 [Example 84, 1-[2-{[4-Chloro-7-(1-ethylpropyl)-1-methyl-1H-benzimidazol-2-yl]oxy}-3-methyl-5-(trifluoromethoxy)phenyl]-N,N-dimethylmethanamine] | < 1000 | –
26 | CCC(CC)c1ccc(Cl)c2nc(Oc3c(C(F)(F)F)cc(C(F)(F)F)nc3C)n(C)c12 [Example 76, 4-Chloro-7-(1-ethylpropyl)-1-methyl-2-{[2-methyl-4,6-bis(trifluoromethyl)pyridin-3-yl]oxy}-1H-benzimidazole] | < 1000 | –
27 | CCC(CC)c1ccc(O)c2nc(Nc3c(C)cc(Cl)cc3Cl)n(C)c12 [Example 90, 2-[(2,4-Dichloro-6-methylphenyl)amino]-7-(1-ethylpropyl)-1-methyl-1H-benzimidazol-4-ol] | < 1000 | –

— patent publication US20100056515A1, “BENZIMIDAZOLE COMPOUNDS” (priority 2006, published 2010)
